Reference: patent US12404295B2, “(Hetero)aryl-methyl-thio-beta-D-galactopyranoside derivatives” (Idorsia Pharmaceuticals Ltd, priority 2019, dated 2025)
pIC50: −log10 of the molar value.

Key:
human Gal-1 (hGal-1) = human Gal-1 (hGal-1) (Homo sapiens (Human), UniProt P09382); assay: competitive binding assay: biotinylated hGal-1 binding to microplate-adsorbed asialofetuin (ASF); details: Table 15; read-out: IC50 (Galectin-1 inhibition)
Experimental: Inhibition data of the epimers R and S of selected Examples are also listed.
(§1) Evaluation of Compound Inhibitory Activity (IC50)
The inhibitory activity of compounds is determined in competitive binding assays. This spectrophotometric assay measures the binding of biotinylated human Gal-3 (hGal-3) or human Gal-1 (hGal-1), respectively, to a microplate-adsorbed glycoprotein, asialofetuin (ASF) (Proc Natl Acad Sci USA. 2013 Mar. 26; 110(13):5052-7.).
Briefly, compounds are serially diluted in DMSO (working dilutions). ASF-coated 384 well plates are supplemented with 22.8 μL/well of biotinylated hGal-3 or hGal-1 in assay buffer (i.e. 300-1000 ng/mL biotinylated hGal-3 or hGal-1) to which 1.2 μL of compound working dilutions are added and mixed.
(§2) Plates are incubated for 3 hours at 4° C., then washed with cold assay buffer (3×50 uL), incubated for 1 hour with 25 μL/well of a streptavidin-peroxidase solution (diluted in assay buffer to 80 ng/mL) at 4° C., followed by further washing steps with assay buffer (3×50 uL). Finally, 25 μL/well of ABTS substrate is added.
(§3) The calculated IC50 values may fluctuate depending on the daily assay performance. Fluctuations of this kind are known to those skilled in the art. IC50 values from several measurements are given as mean values.

human Gal-3 (hGal-3) = human Gal-3 (hGal-3) (Homo sapiens (Human), UniProt P17931); assay: competitive binding assay: biotinylated hGal-3 binding to microplate-adsorbed asialofetuin (ASF); details: Gal-3 inhibition; binding of biotinylated hGal-3 to ASF; mean values; read-out: IC50
Experimental: If not explicitly mentioned otherwise, the inhibition data refer to the binding of biotinylated human Gal-3 (hGal-3).
as §1
The inhibitory activity of compounds is determined in competitive binding assays.
Briefly, compounds are serially diluted in DMSO (working dilutions).
as §2, §3

Sequence of human Gal-1 (hGal-1) (P09382 whole entry): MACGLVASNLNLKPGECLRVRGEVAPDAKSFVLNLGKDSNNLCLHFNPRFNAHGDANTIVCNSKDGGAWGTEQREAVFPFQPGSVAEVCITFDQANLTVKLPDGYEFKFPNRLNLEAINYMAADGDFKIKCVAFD
Sequence of human Gal-3 (hGal-3) (P17931 whole entry): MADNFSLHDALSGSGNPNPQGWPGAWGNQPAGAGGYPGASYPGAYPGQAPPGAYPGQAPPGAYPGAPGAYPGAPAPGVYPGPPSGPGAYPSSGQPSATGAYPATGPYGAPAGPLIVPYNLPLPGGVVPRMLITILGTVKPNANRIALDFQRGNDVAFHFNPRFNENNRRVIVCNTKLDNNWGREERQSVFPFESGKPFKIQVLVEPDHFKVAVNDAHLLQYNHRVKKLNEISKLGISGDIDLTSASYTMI

Compound	pIC50 (human Gal-1 (hGal-1))	pIC50 (human Gal-3 (hGal-3))
CC(C)c1ccccc1C(S[C@@H]1O[C@H](CO)[C@H](O)[C@H](n2cc(-c3cc(F)c(F)c(F)c3)nn2)[C@H]1O)C(C)(C)O (stereo partly drawn) [Example 2.31.105., (2S,3R,4S,5R,6R)-2-((2-Hydroxy-1-(2-isopropylphenyl)-2-methylpropyl)thio)-6-(hydroxymethyl)-4-(4-(3,4,5-trifluorophenyl)-1H-1,2,3-triazol-1-yl)tetrahydro-2H-pyran-3,5-diol]	6.52	6.74
CC(C)c1ccccc1[C@@H](S[C@@H]1O[C@H](CO)[C@H](O)[C@H](n2cc(-c3cc(F)c(F)c(F)c3)nn2)[C@H]1O)C(C)(C)O [Example 2.31.105R., (2S,3R,4S,5R,6R)-2-(((R)-2-Hydroxy-1-(2-isopropylphenyl)-2-methylpropyl)thio)-6-(hydroxymethyl)-4-(4-(3,4,5-trifluorophenyl)-1H-1,2,3-triazol-1-yl)tetrahydro-2H-pyran-3,5-diol]	6.80	7.22
CC(C)(O)C(S[C@@H]1O[C@H](CO)[C@H](O)[C@H](n2cc(-c3cc(F)c(F)c(F)c3)nn2)[C@H]1O)c1ccccc1C1CC1 (stereo partly drawn) [Example 2.31.106., (2S,3R,4S,5R,6R)-2-((1-(2-Cyclopropylphenyl)-2-hydroxy-2-methylpropyl)thio)-6-(hydroxymethyl)-4-(4-(3,4,5-trifluorophenyl)-1H-1,2,3-triazol-1-yl)tetrahydro-2H-pyran-3,5-diol]	6.47	6.70
CC(C)(O)[C@H](S[C@@H]1O[C@H](CO)[C@H](O)[C@H](n2cc(-c3cc(F)c(F)c(F)c3)nn2)[C@H]1O)c1ccccc1C1CC1 [Example 2.31.106R., (2S,3R,4S,5R,6R)-2-(((R)-1-(2-cyclopropylphenyl)-2-hydroxy-2-methylpropyl)thio)-6-(hydroxymethyl)-4-(4-(3,4,5-trifluorophenyl)-1H-1,2,3-triazol-1-yl)tetrahydro-2H-pyran-3,5-diol]	6.68	6.85
CC(C)(O)[C@@H](S[C@@H]1O[C@H](CO)[C@H](O)[C@H](n2cc(-c3cc(F)c(F)c(F)c3)nn2)[C@H]1O)c1ccccc1C1CC1 [Example 2.31.106S., (2S,3R,4S,5R,6R)-2-(((S)-1-(2-cyclopropylphenyl)-2-hydroxy-2-methylpropyl)thio)-6-(hydroxymethyl)-4-(4-(3,4,5-trifluorophenyl)-1H-1,2,3-triazol-1-yl)tetrahydro-2H-pyran-3,5-diol]	4.19	4.80
CC(C)(O)C(S[C@@H]1O[C@H](CO)[C@H](O)[C@H](n2cc(-c3cc(F)c(F)c(F)c3)nn2)[C@H]1O)c1ccccc1-c1ccccc1 (stereo partly drawn) [Example 2.31.110., (2S,3R,4S,5R,6R)-2-((1-([1,1′-Biphenyl]-2-yl)-2-hydroxy-2-methylpropyl)thio)-6-(hydroxymethyl)-4-(4-(3,4,5-trifluorophenyl)-1H-1,2,3-triazol-1-yl)tetrahydro-2H-pyran-3,5-diol]	6.40	6.74
CC(C)(O)[C@H](S[C@@H]1O[C@H](CO)[C@H](O)[C@H](n2cc(-c3cc(F)c(F)c(F)c3)nn2)[C@H]1O)c1ccccc1-c1ccccc1 [Example 2.31.110R., (2S,3R,4S,5R,6R)-2-(((R)-1-([1,1′-Biphenyl]-2-yl)-2-hydroxy-2-methylpropyl)thio)-6-(hydroxymethyl)-4-(4-(3,4,5-trifluorophenyl)-1H-1,2,3-triazol-1-yl)tetrahydro-2H-pyran-3,5-diol]	6.55	6.66
CC(C)(O)[C@@H](S[C@@H]1O[C@H](CO)[C@H](O)[C@H](n2cc(-c3cc(F)c(F)c(F)c3)nn2)[C@H]1O)c1ccccc1-c1ccccc1 [Example 2.31.110S., (2S,3R,4S,5R,6R)-2-(((S)-1-([1,1′-Biphenyl]-2-yl)-2-hydroxy-2-methylpropyl)thio)-6-(hydroxymethyl)-4-(4-(3,4,5-trifluorophenyl)-1H-1,2,3-triazol-1-yl)tetrahydro-2H-pyran-3,5-diol]	4.78	5.31

Second part, the molecule after the results:

pIC50 (human Gal-1 (hGal-1))	pIC50 (human Gal-3 (hGal-3))	Compound
5.91	6.52	CCc1ccccc1C(S[C@@H]1O[C@H](CO)[C@H](O)[C@H](n2cc(-c3cc(F)c(F)c(F)c3)nn2)[C@H]1O)C(C)(C)O (stereo partly drawn) [Example 2.31.103., (2S,3R,4S,5R,6R)-2-((1-(2-Ethylphenyl)-2-hydroxy-2-methylpropyl)thio)-6-(hydroxymethyl)-4-(4-(3,4,5-trifluorophenyl)-1H-1,2,3-triazol-1-yl)tetrahydro-2H-pyran-3,5-diol]
6.22	6.77	CCCc1ccccc1C(S[C@@H]1O[C@H](CO)[C@H](O)[C@H](n2cc(-c3cc(F)c(F)c(F)c3)nn2)[C@H]1O)C(C)(C)O (stereo partly drawn) [Example 2.31.104., (2S,3R,4S,5R,6R)-2-((2-Hydroxy-2-methyl-1-(2-propylphenyl)propyl)thio)-6-(hydroxymethyl)-4-(4-(3,4,5-trifluorophenyl)-1H-1,2,3-triazol-1-yl)tetrahydro-2H-pyran-3,5-diol]
4.19	5.08	CC(C)c1ccccc1[C@H](S[C@@H]1O[C@H](CO)[C@H](O)[C@H](n2cc(-c3cc(F)c(F)c(F)c3)nn2)[C@H]1O)C(C)(C)O [Example 2.31.105S., (2S,3R,4S,5R,6R)-2-(((S)-2-Hydroxy-1-(2-isopropylphenyl)-2-methylpropyl)thio)-6-(hydroxymethyl)-4-(4-(3,4,5-trifluorophenyl)-1H-1,2,3-triazol-1-yl)tetrahydro-2H-pyran-3,5-diol]
6.62	6.59	CC(C)Cc1ccccc1C(S[C@@H]1O[C@H](CO)[C@H](O)[C@H](n2cc(-c3cc(F)c(F)c(F)c3)nn2)[C@H]1O)C(C)(C)O (stereo partly drawn) [Example 2.31.107., (2S,3R,4S,5R,6R)-2-((2-Hydroxy-1-(2-isobutylphenyl)-2-methylpropyl)thio)-6-(hydroxymethyl)-4-(4-(3,4,5-trifluorophenyl)-1H-1,2,3-triazol-1-yl)tetrahydro-2H-pyran-3,5-diol]
6.52	6.70	CC(C)Cc1ccccc1[C@@H](S[C@@H]1O[C@H](CO)[C@H](O)[C@H](n2cc(-c3cc(F)c(F)c(F)c3)nn2)[C@H]1O)C(C)(C)O [Example 2.31.107R., (2S,3R,4S,5R,6R)-2-(((R)-2-hydroxy-1-(2-isobutylphenyl)-2-methylpropyl)thio)-6-(hydroxymethyl)-4-(4-(3,4,5-trifluorophenyl)-1H-1,2,3-triazol-1-yl)tetrahydro-2H-pyran-3,5-diol]
4.25	6.02	CC(C)Cc1ccccc1[C@H](S[C@@H]1O[C@H](CO)[C@H](O)[C@H](n2cc(-c3cc(F)c(F)c(F)c3)nn2)[C@H]1O)C(C)(C)O [Example 2.31.107S., (2S,3R,4S,5R,6R)-2-(((S)-2-hydroxy-1-(2-isobutylphenyl)-2-methylpropyl)thio)-6-(hydroxymethyl)-4-(4-(3,4,5-trifluorophenyl)-1H-1,2,3-triazol-1-yl)tetrahydro-2H-pyran-3,5-diol]
4.67	6.42	CC(C)(O)C(S[C@@H]1O[C@H](CO)[C@H](O)[C@H](n2cc(-c3cc(F)c(F)c(F)c3)nn2)[C@H]1O)c1ccccc1CCO (stereo partly drawn) [Example 2.31.108., (2S,3R,4S,5R,6R)-2-((2-Hydroxy-1-(2-(2-hydroxyethyl)phenyl)-2-methylpropyl)thio)-6-(hydroxymethyl)-4-(4-(3,4,5-trifluorophenyl)-1H-1,2,3-triazol-1-yl)tetrahydro-2H-pyran-3,5-diol]
6.41	6.57	CC(C)(O)[C@H](S[C@@H]1O[C@H](CO)[C@H](O)[C@H](n2cc(-c3cc(F)c(F)c(F)c3)nn2)[C@H]1O)c1ccccc1CCO [Example 2.31.108R., (2S,3R,4S,5R,6R)-2-(((R)-2-Hydroxy-1-(2-(2-hydroxyethyl)phenyl)-2-methylpropyl)thio)-6-(hydroxymethyl)-4-(4-(3,4,5-trifluorophenyl)-1H-1,2,3-triazol-1-yl)tetrahydro-2H-pyran-3,5-diol]
4.59	5.09	CC(C)(O)[C@@H](S[C@@H]1O[C@H](CO)[C@H](O)[C@H](n2cc(-c3cc(F)c(F)c(F)c3)nn2)[C@H]1O)c1ccccc1CCO [Example 2.31.108S., (2S,3R,4S,5R,6R)-2-(((S)-2-Hydroxy-1-(2-(2-hydroxyethyl)phenyl)-2-methylpropyl)thio)-6-(hydroxymethyl)-4-(4-(3,4,5-trifluorophenyl)-1H-1,2,3-triazol-1-yl)tetrahydro-2H-pyran-3,5-diol]
5.49	6.27	CCCCCc1ccccc1C(S[C@@H]1O[C@H](CO)[C@H](O)[C@H](n2cc(-c3cc(F)c(F)c(F)c3)nn2)[C@H]1O)C(C)(C)O (stereo partly drawn) [Example 2.31.109., (2S,3R,4S,5R,6R)-2-((2-Hydroxy-2-methyl-1-(2-pentylphenyl)propyl)thio)-6-(hydroxymethyl)-4-(4-(3,4,5-trifluorophenyl)-1H-1,2,3-triazol-1-yl)tetrahydro-2H-pyran-3,5-diol]
